Turning to `CNC(=O)c1cccc2cccc(NC(=O)c3cccs3)c12` [Compound 120, N-methyl 8-[(2-thienyl)carbonylamino]-1-naphthalenecarboxamide], the melting point is 215 °C.

Source of the values: patent publication US20040053786A1, “Insecticidal 1,8-naphthalenedicarboxamides” (priority 2000, published 2004).
